Source: the supplement of paper PMC10307832

Legend:
Assay in all cases: relative viability (nuclei count vs DMSO), 5 days (fraction); higher = more cells survive
[1] = compound: CCc1c2c(nc3ccc(OC(=O)N4CCC(N5CCCCC5)CC4)cc13)-c1cc3c(c(=O)n1C2)COC(=O)[C@]3(O)CC [Irinotecan] + CC(=O)c1c(C)c2cnc(Nc3ccc(N4CCNCC4)cn3)nc2n(C2CCCC2)c1=O [Palbociclib] (partner 0.5 µM)
Outline: (§1)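 Relative viability equals treated-well nuclei counts divided by vehicle-well nuclei counts. Counts came from 4× images of lung cancer cell lines grown in 1536-well plates for 5 days after pin-tool dosing on the day after seeding. Dosing used one drug alone or a fixed anchor-drug dose plus five library-drug doses (not always all listed) in √10 steps, and values are medians of duplicate plates.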

[2] = compound: CC[C@@H](C)CNCC(=O)N1CCC2=C([C@@H]1COC3=CC=CC(=C3)C)C=CS2 [RU-SKI 43] + O=C(c1cc(Cc2n[nH]c(=O)c3ccccc23)ccc1F)N1CCN(C(=O)C2CC2)CC1 [Olaparib] (partner 8 µM)
Outline: as §1

[3] = compound: Cn1cc(-c2cnc3ccc4ccc(CS(=O)(=O)NCc5ccccn5)cc4c(=O)c3c2)cn1 [MK-8033] + Nc1ncn([C@H]2C[C@H](O)[C@@H](CO)O2)c(=O)n1 [Decitabine] (partner 2 µM)
Outline: as §1

[4] = compound: CCc1c2c(nc3ccc(OC(=O)N4CCC(N5CCCCC5)CC4)cc13)-c1cc3c(c(=O)n1C2)COC(=O)[C@]3(O)CC [Irinotecan] + COc1cc2c(Oc3ccc(NC(=O)C4(C(=O)Nc5ccc(F)cc5)CC4)cc3F)ccnc2cc1OCCCN1CCOCC1 [Foretinib] (partner 0.25 µM)
Outline: as §1

| Cell Line | relative viability ([1]; first compound 0.6325 µM) | relative viability ([1]; first compound 2 µM) | relative viability ([1]; first compound 6.325 µM) | relative viability ([1]; first compound 20 µM) | relative viability ([2]; first compound 0.1 µM) | relative viability ([2]; first compound 0.3162 µM) | relative viability ([2]; first compound 1 µM) | relative viability ([2]; first compound 3.162 µM) | relative viability ([2]; first compound 10 µM) | relative viability ([3]; first compound 0.02 µM) | relative viability ([3]; first compound 0.06325 µM) | relative viability ([3]; first compound 0.2 µM) | relative viability ([3]; first compound 0.6325 µM) | relative viability ([3]; first compound 2 µM) | relative viability ([4]; first compound 0.6325 µM) | relative viability ([4]; first compound 2 µM) | relative viability ([4]; first compound 6.325 µM) | relative viability ([4]; first compound 20 µM) |
| --- | --- | --- | --- | --- | --- | --- | --- | --- | --- | --- | --- | --- | --- | --- | --- | --- | --- | --- |
| NCI-H358 | 0.123 | 0.143 | 0.108 | 0.0947 | 0.548 | 0.936 | 0.756 | 0.636 | 0.545 | 0.205 | 0.192 | 0.211 | 0.261 | 0.198 | 0.563 | 0.476 | 0.195 | 0.134 |
| NCI-H441 | 0.207 | 0.211 | 0.218 | 0.175 | 0.709 | 0.576 | 0.627 | 0.736 | 0.542 | 0.237 | 0.237 | 0.231 | 0.264 | 0.238 | 0.786 | 0.66 | 0.29 | 0.342 |
| NCI-H460 | 0.0549 | 0.128 | 0.0851 | 0.0574 | 0.389 | 0.702 | 0.47 | 0.49 | 0.334 | 0.525 | 0.439 | 0.446 | 0.451 | 0.475 | 0.815 | 0.418 | 0.136 | 0.0629 |
| NCI-H520 | 0.224 | 0.242 | 0.214 | 0.146 | 0.35 | 0.292 | 0.372 | 0.344 | 0.335 | 0.525 | 0.485 | 0.527 | 0.535 | 0.465 | 0.623 | 0.679 | 0.352 | 0.283 |
| NCI-H647 | 0.311 | 0.31 | 0.136 | 0.0705 | 0.584 | 0.821 | 0.512 | 0.695 | 0.628 | 0.33 | 0.362 | 0.382 | 0.372 | 0.305 | 0.986 | 0.742 | 0.174 | 0.132 |
| NCI-H650 | 0.188 | 0.195 | 0.19 | 0.257 | 0.404 | 0.517 |  | 0.38 | 0.406 | 0.335 | 0.329 | 0.306 | 0.323 | 0.323 | 0.981 | 0.774 | 0.226 | 0.15 |
| NCI-H661 | 0.397 | 0.435 | 0.457 | 0.142 | 0.763 | 0.976 | 0.718 | 0.786 | 0.665 | 0.528 | 0.441 | 0.53 | 0.531 | 0.528 | 0.957 | 0.913 | 0.605 | 0.397 |
| NCI-H727 | 0.665 | 0.412 | 0.52 | 0.653 |  | 0.515 | 0.694 | 0.67 | 0.624 | 0.846 | 0.783 | 0.921 | 0.927 | 0.829 | 0.65 | 0.501 | 0.477 | 0.379 |
| NCI-H838 | 0.261 | 0.25 | 0.207 | 0.171 | 0.842 | 0.798 | 0.806 | 0.798 | 0.738 | 0.458 | 0.442 | 0.476 | 0.469 | 0.445 | 1.11 | 0.743 | 0.392 | 0.298 |
| NCI-H1355 |  | 0.393 | 0.215 | 0.206 | 0.742 | 0.72 | 0.724 | 0.797 | 0.775 | 0.363 | 0.309 | 0.36 | 0.335 | 0.318 |  | 0.622 | 0.321 | 0.259 |
| NCI-H1395 |  | 0.572 | 0.476 | 0.284 | 0.452 | 0.417 | 0.451 | 0.477 | 0.46 | 0.68 | 0.701 | 0.71 | 0.7 | 0.693 | 0.841 | 0.592 | 0.498 | 0.495 |
| NCI-H1437 | 0.319 | 0.337 | 0.301 | 0.258 | 0.638 | 0.681 | 0.632 | 0.643 | 0.575 | 0.615 | 0.585 | 0.511 | 0.626 | 0.549 | 0.954 | 0.616 | 0.42 | 0.368 |
| NCI-H1650 | 0.184 | 0.305 | 0.285 | 0.101 | 0.654 | 1.03 | 0.823 | 0.919 | 0.709 | 0.445 | 0.429 | 0.422 | 0.452 | 0.403 |  | 0.956 | 0.432 | 0.446 |
| NCI-H1651 | 0.529 | 0.491 | 0.305 | 0.162 | 0.16 | 0.188 | 0.195 | 0.213 | 0.185 | 0.706 | 0.606 | 0.653 | 0.694 | 0.649 | 0.593 | 0.59 | 0.295 | 0.205 |
| NCI-H1666 | 0.59 | 0.559 | 0.577 | 0.438 | 0.691 | 0.681 | 0.773 | 0.741 | 0.743 | 0.792 | 0.746 | 0.728 | 0.766 | 0.736 | 0.774 | 0.689 | 0.654 | 0.404 |
| NCI-H1734 |  | 0.256 | 0.193 | 0.373 | 0.559 | 0.661 | 0.656 | 0.589 | 0.591 | 0.562 | 0.463 | 0.478 | 0.504 | 0.481 |  | 0.52 | 0.193 | 0.187 |
| NCI-H1755 | 0.405 | 0.446 | 0.438 | 0.486 | 0.835 | 0.975 | 0.99 | 0.923 | 0.908 | 0.743 | 0.673 | 0.769 | 0.64 | 0.691 | 0.9 | 0.667 | 0.35 | 0.462 |
| NCI-H1793 |  | 0.222 | 0.203 | 0.265 | 0.744 | 0.558 | 1.02 | 0.833 | 0.719 | 0.486 |  | 0.51 | 0.379 | 0.543 |  | 0.501 | 0.226 | 0.185 |
